The target of this assay is T1, mushroom tyrosinase (Agaricus bisporus, UniProt C7FF04).
T1 construct: gene PPO3
The assay is described as follows: mushroom tyrosinase (Sigma T3824) assay with L-tyrosine, absorbance at […] nm. Type of assay: biochemical.

Results on 1 molecule are retold here after article PMC10889091, “Isolation, Characterization, Genome Annotation, and Evaluation of Tyrosinase Inhibitory Activity in Secondary Metabolites of Paenibacillus sp. JNUCC32: A Comprehensive Analysis through Molecular Docking and Molecular Dynamics Simulation” (International Journal of Molecular Sciences, 2024).

A word on the IC50: it is the midpoint of a concentration-inhibition curve. Lower therefore signals greater potency.

T1 sequence (C7FF04 2-392): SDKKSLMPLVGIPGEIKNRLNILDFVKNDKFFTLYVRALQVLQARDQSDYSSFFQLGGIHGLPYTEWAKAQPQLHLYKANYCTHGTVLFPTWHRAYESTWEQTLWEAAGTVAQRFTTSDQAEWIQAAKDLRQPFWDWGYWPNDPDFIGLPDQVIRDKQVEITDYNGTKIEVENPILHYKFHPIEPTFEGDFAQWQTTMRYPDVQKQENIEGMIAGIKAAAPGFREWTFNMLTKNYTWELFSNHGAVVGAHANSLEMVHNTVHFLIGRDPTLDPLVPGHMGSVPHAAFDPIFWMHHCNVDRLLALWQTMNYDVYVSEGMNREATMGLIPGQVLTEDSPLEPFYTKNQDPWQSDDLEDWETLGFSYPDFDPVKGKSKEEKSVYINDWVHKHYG

In turn, `OCCc1c[nH]c2ccccc12` [compound 1, tryptophol] yielded a concentration for half-maximal inhibition (IC50) of 999 µM.
